Experimental data: publication PMC13128454, “Mutant p53 protein accumulation is selectively targetable by proximity-inducing drugs” (Nature Chemical Biology, 2025)
pEC50, pIC50: −log10 of the molar value. Values joined by “and” are separate entries in the source; they are usually repeats but may differ in a detail not shown here. Equal entries are not always repeated. Where two headings read alike, the source gives them in different places.

Tests used:
[1] = system: Calu-1 cells stably expressing Halo–p53-R273H (FL)–mCherry versus parental Calu-1 cells; assay: flow-cytometry growth competition; type: cell-based; settings: sheet S2E
Method: (§1) Cells with and without a fluorescent marker (for example, Halo–p53–mCherry) were mixed and the resulting solution was plated in six-well plates or 10-cm dishes at low density; compound was added at varying concentrations. After reaching confluence, cells were passaged and retreated with compound if needed. Otherwise, cells were trypsinized, washed and resuspended in complete growth medium in 96-well plates or tubes for flow cytometry. Untreated cell mixtures were used to establish gates separating the fluorophore^+/− populations. Analysis was conducted on a CytoFLEX LX flow cytometer.

[2] = system: Halo–p53-Y220C ΔTAD–mCherry 293T cells versus parental 293T cells; assay: flow-cytometry growth competition; type: cell-based; settings: for Viability competition, AVERAGE: average of 3 replicates; for pEC50: growth competition analyzed on day 10, n = 3, read-out: Competition EC50; for pIC50 / Emax: viability competition (sheet 5B); for Emax: lowest average of sheet 5A; for mCherry_percent: 8 days, untreated 39.76; for activity / difference in cell survival in competition: 8-day competition; for normalized_mCherry_percentage: Y220C, day 8, normalized to DMSO
Method: as §1

[3] = target: T1, p53-Y220C–PLK1 ternary complex (Homo sapiens, UniProt P04637+P53350, M133L/N239Y/N268D/V203A/Y220C); assay: NanoBiT ternary complex assay in cotransfected 293T cells; type: cell-based
T1 construct: NLS–LgBiT–p53-Y220C (DBD) and mEGFP–PLK1–SmBiT; expressed in transfected cells; host or cells: 293T cells, transient cotransfection
Description: After 1 day, the cells were passaged into 384-well plates and treated with varying concentrations of compound.

[4] = system: Halo–p53-R273H (FL)–mCherry 293T cells versus parental 293T cells; assay: flow-cytometry growth competition; type: cell-based
Method: as §1

[5] = system: cancer cell lines across DepMap; design: method as in DepMap; settings: antiproliferative; PRISM OncRef; ref DepMap; read-out: median IC50 across DepMap; cited from earlier work
WEE1 = system: WEE1; design: method as in PMID 19887545; settings: cell-free; read-out: IC50 for cell-free WEE1 inhibition; cited from earlier work
[6] = 24 h, n = 4, read-out: NanoBiT EC50

## CC[C@@H]1C(=O)N(C)c2cnc(Nc3ccc(C(=O)NCCOCCOCCC(=O)NCCOCCOCCCCCCCl)cc3OC)nc2N1C1CCCC1 [HLDA-131]
[1]; 1 nM
  mCherry_percent: 83.77%
[1]; 10 nM
  mCherry_percent: 55.02%
[1]; 100 nM
  mCherry_percent: 4.8%
[1]; 1 uM
  mCherry_percent: 3.52%

## PEG6
[2]; Concentration (nM) 10
  Viability competition, Replicate 1-3: 0.5239 and 0.6471 and 0.659
  Viability competition, AVERAGE: 0.61
[2]; Concentration (nM) 100
  Viability competition, Replicate 1-3: 0.5384 and 0.6799 and 0.6767
  Viability competition, AVERAGE: 0.6317
[2]; Concentration (nM) 500
  Viability competition, Replicate 1-3: 0.4819 and 0.6302 and 0.6328
  Viability competition, AVERAGE: 0.5816
[2]; Concentration (nM) 1000
  Viability competition, Replicate 1-3: 0.2653 and 0.295 and 0.3011
  Viability competition, AVERAGE: 0.2871
[2]; Concentration (nM) 2000
  Viability competition, Replicate 1-3: 0.064 and 0.0676 and 0.0785
  Viability competition, AVERAGE: 0.07003
[2]; Concentration (nM) 5000
  Viability competition, Replicate 1-3: 0.1113 and 0.1194 and 0.102
  Viability competition, AVERAGE: 0.1109
[2]
  pEC50: 6.05
  pIC50: 6.05
  Emax: 0.07003
[3]; [6]
  pEC50: 5.43
[3]; Concentration 19.5312
  NanoBiT mean_norm: 1.005
[3]; Concentration 39.0625
  NanoBiT mean_norm: 0.9853
[3]; Concentration 78.125
  NanoBiT mean_norm: 1.029
[3]; Concentration 156.25
  NanoBiT mean_norm: 1.026
[3]; Concentration 312.5
  NanoBiT mean_norm: 1.029
[3]; Concentration 625
  NanoBiT mean_norm: 1.011
[3]; Concentration 1250
  NanoBiT mean_norm: 1.186
[3]; Concentration 2500
  NanoBiT mean_norm: 1.25
[3]; Concentration 5000
  NanoBiT mean_norm: 1.542
[3]; Concentration 10000
  NanoBiT mean_norm: 1.6853
[3]; sheet 5C
  Max_effect: 1.6853
[3]; sheet 5C, read-out: EC50
  pEC50: 5.43

## C=CCn1c(=O)c2cnc(Nc3ccc(N4CCN(C(=O)CCOCCOCCC(=O)NCCOCCOCCCCCCCl)CC4)cc3)nc2n1-c1cccc(C(C)(C)O)n1 [Halo-PEG2-adavosertib]
[2]; 100 nM
  mCherry_percent: 10.55%
[2]; 1 uM
  mCherry_percent: 4.24%
[2]; 10 uM
  mCherry_percent: 26.57%
[4]; Homo sapiens, HEK-293T, Halo–p53-R273H (FL)–mCherry 293T cells as printed, Extended Data Fig. 2f
  pEC50: 7.39
[4]; doses between 100 nM and 1 μM, cells as printed
  selective inhibition of proliferation in competition assay: selectively inhibited the proliferation

## C=CC(=O)n1c2ccccc2c2cc(C(=O)NCc3cn(CCOCCOCCOCCOCCNC(=O)c4ccc(Nc5ncc6c(n5)N(C5CCCC5)[C@H](CC)C(=O)N6C)c(OC)c4)nn3)ccc21 [KG5-PEG4-BI2536]
[2]
  activity / difference in cell survival in competition: did not observe any difference in cell survival
[2]; 1 nM
  normalized_mCherry_percentage: 98.99%
[2]; 10 nM
  normalized_mCherry_percentage: 99.96%
[2]; 100 nM
  normalized_mCherry_percentage: 100.2%
[2]; 1 uM
  normalized_mCherry_percentage: 99.83%

## AP1867-C8-BI2536
[2]
  activity / difference in cell survival in competition: did not observe any activity
[2]; 1 nM
  normalized_mCherry_percentage: 97.6%
[2]; 10 nM
  normalized_mCherry_percentage: 98.26%
[2]; 100 nM
  normalized_mCherry_percentage: 98.72%
[2]; 1 uM
  normalized_mCherry_percentage: 93.37%

## CC[C@@H]1C(=O)N(C)c2cnc(Nc3ccc(C(=O)NCCC(=O)N4CCC(Nc5cccc6c5cc(C#CCNc5ccc(S(C)(=O)=O)cc5OC)n6CC(F)(F)F)CC4)cc3OC)nc2N1C1CCCC1 [PMV6-C3-BI2536]
[2]; Concentration (nM) 10
  Viability competition, AVERAGE: 0.6993
[2]; Concentration (nM) 10, listed as C3
  Viability competition, Replicate 1-3: 0.706 and 0.7024 and 0.6895
[2]; Concentration (nM) 100
  Viability competition, AVERAGE: 0.1737
[2]; Concentration (nM) 100, listed as C3
  Viability competition, Replicate 1-3: 0.1753 and 0.1712 and 0.1746
[2]; Concentration (nM) 500
  Viability competition, AVERAGE: 0.1322
[2]; Concentration (nM) 500, listed as C3
  Viability competition, Replicate 1-3: 0.1474 and 0.1221 and 0.127
[2]; Concentration (nM) 1000
  Viability competition, AVERAGE: 0.1085
[2]; Concentration (nM) 1000, listed as C3
  Viability competition, Replicate 1-3: 0.1425 and 0.0972 and 0.0859
[2]; Concentration (nM) 2000
  Viability competition, AVERAGE: 0.0794
[2]; Concentration (nM) 2000, listed as C3
  Viability competition, Replicate 1-3: 0.0894 and 0.0623 and 0.0865
[2]; Concentration (nM) 5000
  Viability competition, AVERAGE: 0.1321
[2]; Concentration (nM) 5000, listed as C3
  Viability competition, Replicate 1-3: 0.1277 and 0.1154 and 0.1531
[2]; day 10
  potency versus p53-01 in the competition assay: over 1.5 orders of magnitude
[2]
  pEC50: 7.60
  pIC50: 7.60
  Emax: 0.0794
[3]; [6]
  pEC50: 6.39
[3]; Concentration 19.5312
  NanoBiT mean_norm: 1.06
[3]; Concentration 39.0625
  NanoBiT mean_norm: 1.117
[3]; Concentration 78.125
  NanoBiT mean_norm: 1.1621
[3]; Concentration 156.25
  NanoBiT mean_norm: 1.171
[3]; Concentration 312.5
  NanoBiT mean_norm: 1.264
[3]; Concentration 625
  NanoBiT mean_norm: 1.76
[3]; Concentration 1250
  NanoBiT mean_norm: 1.765
[3]; Concentration 2500
  NanoBiT mean_norm: 1.801
[3]; Concentration 5000
  NanoBiT mean_norm: 1.856
[3]; Concentration 10000
  NanoBiT mean_norm: 1.853
[3]; sheet 5C
  Max_effect: 1.856
[3]; sheet 5C, read-out: EC50
  pEC50: 6.39

## CC[C@@H]1C(=O)N(C)c2cnc(Nc3ccc(C(=O)NCCOCCOCCOCCOCCC(=O)N4CCC(Nc5cccc6c5cc(C#CCNc5ccc(S(C)(=O)=O)cc5OC)n6CC(F)(F)F)CC4)cc3OC)nc2N1C1CCCC1 [PEG4 (p53-01)]
[2]; Concentration (nM) 10
  Viability competition, Replicate 1-3: 0.6959 and 0.6663 and 0.6621
  Viability competition, AVERAGE: 0.6748
[2]; Concentration (nM) 100
  Viability competition, Replicate 1-3: 0.7132 and 0.7004 and 0.6708
  Viability competition, AVERAGE: 0.6948
[2]; Concentration (nM) 500
  Viability competition, Replicate 1-3: 0.6679 and 0.6445 and 0.6361
  Viability competition, AVERAGE: 0.6495
[2]; Concentration (nM) 1000
  Viability competition, Replicate 1-3: 0.309 and 0.295 and 0.2813
  Viability competition, AVERAGE: 0.2951
[2]; Concentration (nM) 2000
  Viability competition, Replicate 1-3: 0.1194 and 0.1119 and 0.1123
  Viability competition, AVERAGE: 0.1145
[2]; Concentration (nM) 5000
  Viability competition, Replicate 1-3: 0.1698 and 0.1509 and 0.1508
  Viability competition, AVERAGE: 0.1572
[2]
  pIC50: 6.07
  Emax: 0.1145

## C=CCn1c(=O)c2cnc(Nc3ccc(N4CCN(C)CC4)cc3)nc2n1-c1cccc(C(C)(C)O)n1 [adavosertib]
[5]
  pIC50: 6.46
WEE1
  pIC50: 8.28

## O=C(/C=C\n1cnc(-c2cc(C(F)(F)F)cc(C(F)(F)F)c2)n1)NNc1cnccn1 [selinexor]
[2]
  activity / difference in cell survival in competition: did not observe any activity
[2]; 1 nM
  normalized_mCherry_percentage: 98.56%
[2]; 10 nM
  normalized_mCherry_percentage: 98.63%
[2]; 100 nM
  normalized_mCherry_percentage: 103.2%
[2]; 1 uM
  normalized_mCherry_percentage: 99.86%
